Laboratory results: PubChem BioAssay (NCI)
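Method: 48-hour compound exposure of cells in 96-well plates, five concentrations, linear interpolation of endpoints. TGI: concentration producing complete growth inhibition.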

Key:
Test in all cases: DTP human tumour cell line panel, 48 h
786-0 renal = tested on: 786-0 renal
OVCAR-5 ovarian = tested on: OVCAR-5 ovarian
DU-145 prostate = tested on: DU-145 prostate
MCF7 breast = tested on: MCF7 breast
SK-MEL-5 melanoma = tested on: SK-MEL-5 melanoma
COLO 205 colon = tested on: COLO 205 colon
U251 CNS = tested on: U251 CNS
NCI-H460 lung = tested on: NCI-H460 lung
HOP-92 NSCLC = tested on: HOP-92 NSCLC
SF-539 CNS = tested on: SF-539 CNS

Compound	TGI (786-0 renal)	TGI (OVCAR-5 ovarian)	TGI (DU-145 prostate)	TGI (MCF7 breast)	TGI (SK-MEL-5 melanoma)	TGI (COLO 205 colon)	TGI (U251 CNS)	TGI (NCI-H460 lung)	TGI (HOP-92 NSCLC)	TGI (SF-539 CNS)
CC1(C)[C@@H]2C[C@H]1c1cnc(-c3ccccn3)cc1[C@H]2C(O)[C@@H]1c2cc(-c3ccccn3)ncc2[C@H]2C[C@@H]1C2(C)C (some centres undefined)	4.69 µM	18 µM	3.47 µM	13.5 µM	1.42 µM	4.06 µM	7.45 µM	24.3 µM	21.8 µM	
CCOC(=O)/C(=C/c1ccco1)P(=O)(OCC)OCC	> 100 µM	> 100 µM			> 100 µM	> 100 µM	> 100 µM	> 100 µM	> 100 µM	> 100 µM
FC(F)=C(c1ccc(-c2ccc(Cl)cc2)cc1)C(F)(F)F	37.8 µM	31.3 µM	34.6 µM		32.9 µM	36.1 µM	31.4 µM	33.7 µM	33.4 µM	45.3 µM
C=C1CC2C(=O)N(c3ccccc3)C(=O)C2CC1n1[nH]c(=O)n(Cc2ccccc2)c1=O (centres undefined)	> 100 µM	> 100 µM			> 100 µM	> 100 µM	> 100 µM	> 100 µM	> 100 µM	> 100 µM
O=c1c(Cc2ccccc2)c(-c2ccccc2)[nH]n1C1=NCCN1	> 100 µM	> 100 µM		> 100 µM	> 100 µM	> 100 µM	> 100 µM	> 100 µM	> 100 µM	> 100 µM
O=C(c1ccccc1)[C@H]1Nc2cnccc2C2c3ccccc3CC21 (some centres undefined)	> 67 µM	74.1 µM			10.1 µM	42.9 µM	48.8 µM	33.9 µM	37.4 µM	> 62.6 µM
COC1OC2COC(C)(C)OC2C2OC(C)(C)OC12 (centres undefined)	52 µM	> 100 µM	> 100 µM	> 100 µM	> 100 µM	> 100 µM	> 100 µM			
COC(=O)C1=C(C(=O)OC)C2(C)CCC(=O)C1O2 (centres undefined)	> 10 µM	> 10 µM	> 10 µM	> 10 µM	> 10 µM	> 10 µM	> 10 µM	> 10 µM		> 10 µM
COC(=O)[C@H]1C=C[C@H](OC2OC(COC(C)=O)C(OC(C)=O)C(OC(C)=O)C2OC(C)=O)n2c(=O)n(-c3ccccc3)c(=O)n21 (some centres undefined)	14.7 µM	25.7 µM	21.1 µM		> 22.4 µM	3.6 µM	27.9 µM	10.5 µM	3.9 µM	4.44 µM
CCOC(=O)c1[nH]c2nc(SC)nc(NC)c2c1N	> 100 µM	> 100 µM	> 100 µM		> 100 µM	> 100 µM	> 100 µM	> 100 µM		
COc1cc(CCCOC2OC(COC3OCC(O)C(O)C3O)C(O)C(O)C2O)cc2cc(-c3ccc4c(c3)OCO4)oc12 (centres undefined)		> 175 µM		> 175 µM	> 175 µM	> 175 µM	> 175 µM	> 175 µM	> 175 µM	> 175 µM
NS(=O)(=O)c1nnc(NSc2ccc([N+](=O)[O-])cc2)s1	> 100 µM	> 100 µM	> 100 µM	> 100 µM	> 100 µM	> 100 µM	> 100 µM	> 100 µM	> 100 µM	
CC/C=C\C/C=C\C/C=C\CCCCCCCC(=O)OC(COC(=O)CCCCCCCCCCCCCCCCC)COC1OC(CO)C(O)C(O)C1O (centres undefined)	> 25 µM	> 25 µM	> 25 µM	> 25 µM	> 25 µM	> 25 µM	> 25 µM	> 25 µM	> 25 µM	
O=C(NCCCNCCCCNCCCNC(=O)C(F)(F)F)C(F)(F)F	> 100 µM	> 100 µM	> 100 µM	> 100 µM	> 100 µM	> 100 µM	> 100 µM	> 100 µM		> 100 µM
Cc1cc2c(cc1Cl)SC(NNc1cnc3ccccc3n1)=NS2(=O)=O	> 100 µM	> 100 µM	> 100 µM		> 100 µM	> 100 µM	> 100 µM	> 100 µM	77.2 µM	87 µM
CCN(CC)C(=S)SS(=O)(=O)c1ccc(C)cc1	50.5 µM	> 100 µM	> 100 µM		30.4 µM	63.7 µM	69.6 µM	> 100 µM		39 µM
O=c1oc2ccccc2c2nc3ccccc3cc12	80.4 µM	> 100 µM	> 100 µM		> 100 µM	> 100 µM	87.9 µM	> 100 µM	90.1 µM	27.4 µM
